Experimental data published in US20220017484A1, “INHIBITOR OF BRUTON TYROSINE KINASE” (BEIJING RECIPROCAPHARMACEUTICALS CO., LTD., priority 2018, published 2022).

Columns and labels:
[1] = molecular target: T1, Btk (Homo sapiens, UniProt Q06187); assay: Covalent inhibition assay on BTK (fluorescent probe labeling, SDS-PAGE scanning); type: binding; set-up: purchased carna 08-180; conditions: for binding mode to recombinant BTK: 0.5 μM and 5 μM, 1 h incubation; for inhibition of the labeling of BTK by the fluorescent probe: 1 h incubation with BTK, then probe 1 h, 1% DMSO control
T1 sequence (Q06187 whole entry): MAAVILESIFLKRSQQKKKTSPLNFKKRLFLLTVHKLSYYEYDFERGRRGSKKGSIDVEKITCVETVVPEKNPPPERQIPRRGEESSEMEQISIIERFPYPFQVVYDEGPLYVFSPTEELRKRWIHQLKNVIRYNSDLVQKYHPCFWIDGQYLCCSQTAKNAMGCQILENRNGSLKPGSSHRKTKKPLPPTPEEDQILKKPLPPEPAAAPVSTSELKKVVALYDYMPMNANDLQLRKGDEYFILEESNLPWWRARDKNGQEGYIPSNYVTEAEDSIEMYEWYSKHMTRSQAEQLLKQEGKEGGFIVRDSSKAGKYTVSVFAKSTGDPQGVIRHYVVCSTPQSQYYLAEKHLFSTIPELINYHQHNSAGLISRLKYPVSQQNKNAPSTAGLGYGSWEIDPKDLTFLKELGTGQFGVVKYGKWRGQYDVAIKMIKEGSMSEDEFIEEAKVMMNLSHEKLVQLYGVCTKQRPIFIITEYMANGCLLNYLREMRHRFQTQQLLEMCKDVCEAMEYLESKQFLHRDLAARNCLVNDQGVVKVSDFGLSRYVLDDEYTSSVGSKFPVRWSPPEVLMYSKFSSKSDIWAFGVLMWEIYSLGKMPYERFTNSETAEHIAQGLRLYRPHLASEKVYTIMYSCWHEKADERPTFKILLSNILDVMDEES
Protocol: FIG. 1 is a graph showing the scanning results from SDS-PAGE electrophoresis after the compounds of Examples 23 and 26 at two concentrations (0.5 μM and 5 μM) were incubated with BTK for 1 h, and then a probe prepared according to Sci. Rep. 2015, 5, 16136 was added and incubated for 1 h.
This assay was carried out using the compounds of Examples 23 and 26. The reagents used are as follows:
BTK kinase: brand name: carna, product number: 08-180, concentration: […];
BTK enzyme activity buffer: 1× kinase buffer+1 mM DTT+5 mM MgCl2+50 nM SEB;
BTK probe (100 μM): prepared according to Sci. Rep. 2015, 5, 16136 (Pan Zhengying, et al.);
The compounds of Examples 23 and 26: prepared as described above, and prepared at two concentrations (0.5 μM/5 μM) respectively.
The steps of the assay are as follows:
1. The sample order was 1% DMSO, 0.5 μM compound of Example 23, 5 μM compound of Example 23, 0.5 μM compound of Example 26, and 5 μM compound of Example 26. The compounds, BTK, probe and 2× loading buffer were added to 5 200 μl EP tubes using a pipette.
2. The final concentrations of the compounds of Examples 23 and 26 were 0.5 μM and 5 μM, and the control group was 1% DMSO. The compounds were first prepared with DMSO to 100× the above final concentrations, and diluted ×40 with BTK enzyme activity Buffer. For the reaction, 4 μl/well of the compound was added to the 10 μl system using a pipette to reach its final concentration. For 1% DMSO, the stock solution was diluted ×40 with BTK enzyme activity Buffer.
3. The BTK (200 ng/μl) was diluted to 10 ng/μl, and the probe (100 μM) was diluted to 2.5 μM. They were placed on ice for later use, and the probe was protected from light.
4. To each tube was added 4 μl of BTK, followed by 4 μl of the Example compound. After 1 h incubation, the probe was added, and then incubated for 1 h in the dark.
5. 2× loading buffer was prepared. After the probe was incubated, 10 μl of the 2× loading buffer was added to each well, mixed well, and heated at 100° C. for 10 min to prepare the sample.
6. 10 μl (containing 20 ng of BTK, and 0.5 μM probe) was loaded. Scanning was performed after SDS-PAGE. The order of samples was the order of spotting.
If it is a compound that reversibly binds to BTK, the probe would bind to the released BTK during 1 h incubation with a mixture of the compound and BTK, leading to a fluorescent band.

[2] = molecular target: T1, Btk; assay: Analysis of in vitro inhibitory activity of Btk (cell-free TR-FRET kinase assay); type: biochemical; conditions: for IC50: cell-free TR-FRET, ATP at Km, 1 h, read-out: Efficacy (Btk IC50); for inhibitory effects against Btk (in words): summary of Table 1 efficacy data
Protocol: In a cell-free kinase assay, the method described below or a similar method was used to determine the half inhibitory concentration (IC50) of the compound of the present invention on Btk.
Btk kinase activity was determined using a time-resolved fluorescence resonance energy transfer (TR-FRET) methodology. Measurements were performed in a reaction volume of 50 μL using 96-well assay plates. […] The reaction was quenched by the addition of 1.2 equivalents of EDTA (relative to divalent cation) in […] of 1× Lance buffer (Perkin-Elmer). Streptavidin-APC (Perkin-Elmer) and Eu-labeled p-Tyr100 antibody (Perkin-Elmer) in 1× Lance buffer were added in a volume of 25 μL to give final concentrations of 100 nM and 2.5 nM, respectively. The mixture was allowed to incubate for 1 h. The TR-FRET signal was measured on a multimode plate reader at an excitation wavelength (λEx) of 330 nm and detection wavelengths (λEm) of 615 and 665 nm. The activity was determined by the ratio of fluorescence at 665 nm to that at 615 nm. For each compound, the enzyme activity was measured in the presence of different concentrations of the compound. Negative control reactions were performed in the absence of inhibitor in replicates of six, and two no-enzyme controls were used to determine baseline fluorescence levels. IC50 was obtained by fitting using the program Batch Ki (Kuzmic, et al. (2000), Anal. Biochem. 286:45-50).
The Example compounds 1-50 of the present invention were synthesized according to the above Synthetic Schemes I to VII. In the analysis of in vitro inhibitory activity of Btk, the IC50 values of the Example compounds 1-50 of the present invention were determined. The IC50 values are given according to the interval of the IC50 value, where “+++” means IC50<100 nM; “++” means 100 nM≤IC50<1000 nM; and “+” means 1000 nM≤IC50<10000 nM.

[3] = test system: OCI-LY7 cells; assay: Cell viability assay (CellTiter-Glo, 72 h); type: cell-based; conditions: Homo sapiens, read-out: Results from inhibition of OCI-LY7 cells (IC50)
Protocol: An in vitro cell viability assay was conducted using the compounds of Examples 1-50 following the steps below:
1. After OCI-LY7 cells were recovered, they were cultured at 37° C., 5% CO2, and 95% humidity.
2. For the compounds of Examples 1-50, 8 compound solutions at different concentrations were prepared, respectively. 50 μL of the compound solution at each concentration was added to a 96-well black plate.
3. The cell concentration was adjusted to about 30,000 cells/mL. 100 μL of cell suspension was added to the 96-well plate, and mixed well. The final cell density was about 3,000 cells/well.
4. The 96-well plate was placed at 37° C., 5% CO2, and 95% humidity for 72 h.
5. The cell survival rate was measured by the method of CellTiter-Glo® Luminescent Cell Viability Assay (Promega, Cat #G7572). The fluorescence data were read on a microplate reader (EnVision™, a multi-function microplate detector, PerkinElmer).
6. The obtained fluorescence data were analyzed using GraphPad Prism software. The cell survival rate was calculated for each example compound at each concentration, and the IC50 interval of each example compound was obtained.

With `C=CC(=O)N(C)c1cccc(Nc2ncc3cc(-c4c(C)cc[nH]c4=O)ccc3n2)c1` [Example 23] the “binding mode to recombinant BTK” value [1] was “irreversibly covalently binds”, the “inhibition of the labeling of BTK by the fluorescent probe” value (from here on “inhibition of the labeling of BTK”) ([1]; compound 0.5 μM) was “completely inhibit” and the “inhibition of the labeling of BTK” value ([1]; compound 5 μM) was “completely inhibit”. The IC50 [2] was less than 100 nM, the “inhibitory effects against Btk (in words)” value (from here on “inhibitory effects”) [2] was “particularly excellent inhibitory effects” and the IC50 [3] was less than 500 nM.
`C=CC(=O)N(CC)c1cccc(Nc2ncc3cc(-c4c(C)cc[nH]c4=O)ccc3n2)c1` [Example 26] was tested, and the “binding mode to recombinant BTK” value [1] was “irreversibly covalently binds”, the “inhibition of the labeling of BTK” value ([1]; compound 0.5 μM) was “completely inhibit” and the “inhibition of the labeling of BTK” value ([1]; compound 5 μM) was “completely inhibit”. The IC50 [2] was less than 100 nM, the “inhibitory effects” value [2] was “particularly excellent inhibitory effects” and the IC50 [3] was less than 500 nM.
In the case of `[2H]C([2H])=C([2H])C(=O)N(C)c1cccc(Nc2ncc3cc(-c4c(C)cc[nH]c4=O)ccc3n2)c1` [Example 45], the IC50 [2] is reported as less than 100 nM, the “inhibitory effects” value [2] is reported as “particularly excellent inhibitory effects” and the IC50 [3] is reported as less than 500 nM.
`[2H]C([2H])=C([2H])C(=O)N(c1cccc(Nc2ncc3cc(-c4c(C)cc[nH]c4=O)ccc3n2)c1)C([2H])([2H])[2H]` [Example 46] was tested, and the IC50 [2] was less than 100 nM, the “inhibitory effects” value [2] was “particularly excellent inhibitory effects” and the IC50 [3] was less than 500 nM.
For `[2H]C([2H])([2H])C([2H])([2H])N(C(=O)C=C)c1cccc(Nc2ncc3cc(-c4c(C)cc[nH]c4=O)ccc3n2)c1` [Example 47], the IC50 [2] was less than 100 nM and the IC50 [3] was less than 500 nM.
In the case of `[2H]C([2H])=C([2H])C(=O)N(CC)c1cccc(Nc2ncc3cc(-c4c(C)cc[nH]c4=O)ccc3n2)c1` [Example 48], the IC50 [2] is reported as less than 100 nM and the IC50 [3] is reported as less than 500 nM.
For `[2H]C([2H])=C([2H])C(=O)N(c1cccc(Nc2ncc3cc(-c4c(C)cc[nH]c4=O)ccc3n2)c1)C([2H])([2H])C([2H])([2H])[2H]` [Example 49], the IC50 [2] was less than 100 nM and the IC50 [3] was less than 500 nM.
With `[2H]C([2H])=C([2H])C(=O)N(CCOC)c1cccc(Nc2ncc3cc(-c4c(C)cc[nH]c4=O)ccc3n2)c1` [Example 50] the IC50 [2] was less than 100 nM, the “inhibitory effects” value [2] was “particularly excellent inhibitory effects” and the IC50 [3] was less than 500 nM.
